Laboratory results as given in ChEMBL document CHEMBL6078713, “Synthesis and mechanistic studies of 4-aminoquinoline-Isatin molecular hybrids and Schiff's bases as promising antimicrobial agents” (Eur J Med Chem, 2025).
Converted amounts (≈) assume the structure as drawn. The source made the active and inactive calls. The calls are words filed in the database; no cut-off is given here.

Columns and labels:
[1] = system: Escherichia coli; assay: Antibacterial activity against Escherichia coli MTCC 443 assessed as diameter of zone of inhibition at 500 ug/ml by agar disk diffusion method; format: functional; conditions: read-out: DIZ
[2] = system: Enterococcus faecalis; assay: Antibacterial activity against Enterococcus faecalis MTCC 439 assessed as diameter of zone of inhibition at 500 ug/ml by agar disk diffusion method; format: functional; conditions: read-out: DIZ
[3] = system: Bacillus subtilis; assay: Antibacterial activity against Bacillus subtilis MTCC 736 assessed as diameter of zone of inhibition at 500 ug/ml by agar disk diffusion method; format: functional; conditions: read-out: DIZ
[4] = system: Staphylococcus aureus; assay: Antibacterial activity against Staphylococcus aureus MTCC 902 assessed as diameter of zone of inhibition at 500 ug/ml by agar disk diffusion method; format: functional; conditions: read-out: DIZ
[5] = system: Pseudomonas aeruginosa; assay: Antibacterial activity against Pseudomonas aeruginosa MTCC 2453 assessed as diameter of zone of inhibition at 500 ug/ml by agar disk diffusion method; format: functional; conditions: read-out: DIZ
[6] = system: Salmonella typhi; assay: Antibacterial activity against Salmonella typhi assessed as diameter of zone of inhibition at 500 ug/ml by agar disk diffusion method; format: functional, Salmonella enterica subsp. enterica serovar Typhi; conditions: Salmonella enterica, read-out: DIZ
[7] = system: Escherichia coli; assay: Antibacterial activity against Escherichia coli MTCC 443 assessed as inhibition of bacterial growth incubated overnight by serial dilution based spectrophotometer; format: functional
[8] = system: Enterococcus faecalis; assay: Antibacterial activity against Enterococcus faecalis MTCC 439 assessed as inhibition of bacterial growth incubated overnight by serial dilution based spectrophotometer; format: functional
[9] = system: Bacillus subtilis; assay: Antibacterial activity against Bacillus subtilis MTCC 736 assessed as inhibition of bacterial growth incubated overnight by serial dilution based spectrophotometer; format: functional
[10] = system: Staphylococcus aureus; assay: Antibacterial activity against Staphylococcus aureus MTCC 902 assessed as inhibition of bacterial growth incubated overnight by serial dilution based spectrophotometer; format: functional
[11] = system: Pseudomonas aeruginosa; assay: Antibacterial activity against Pseudomonas aeruginosa MTCC 2453 assessed as inhibition of bacterial growth incubated overnight by serial dilution based spectrophotometer; format: functional
[12] = system: Salmonella typhi; assay: Antibacterial activity against Salmonella typhi assessed as inhibition of bacterial growth incubated overnight by serial dilution based spectrophotometer; format: functional, Salmonella enterica subsp. enterica serovar Typhi; conditions: Salmonella enterica
[13] = system: Escherichia coli; assay: Bactericidal activity against Escherichia coli MTCC 443 assessed as inhibition of bacterial growth incubated overnight; format: functional
[14] = system: Enterococcus faecalis; assay: Bactericidal activity against Enterococcus faecalis MTCC 439 assessed as inhibition of bacterial growth incubated overnight; format: functional
[15] = system: Bacillus subtilis; assay: Bactericidal activity against Bacillus subtilis MTCC 736 assessed as inhibition of bacterial growth incubated overnight; format: functional
[16] = system: Staphylococcus aureus; assay: Bactericidal activity against Staphylococcus aureus MTCC 902 assessed as inhibition of bacterial growth incubated overnight; format: functional
[17] = system: Pseudomonas aeruginosa; assay: Bactericidal activity against Pseudomonas aeruginosa MTCC 2453 assessed as inhibition of bacterial growth incubated overnight; format: functional
[18] = system: Salmonella typhi; assay: Bactericidal activity against Salmonella typhi assessed as inhibition of bacterial growth incubated overnight; format: functional, Salmonella enterica subsp. enterica serovar Typhi; conditions: Salmonella enterica
[19] = system: Escherichia coli; assay: Ratio of MBC for antibacterial activity against Escherichia coli MTCC 443 to MIC for bactericidal activity against Escherichia coli MTCC 443; format: functional
[20] = system: Bacillus subtilis; assay: Ratio of MBC for antibacterial activity against Bacillus subtilis MTCC 736 to MIC for bactericidal activity against Bacillus subtilis MTCC 736; format: functional
[21] = system: Pseudomonas aeruginosa; assay: Ratio of MBC for antibacterial activity against Pseudomonas aeruginosa MTCC 2453 to MIC for bactericidal activity against Pseudomonas aeruginosa MTCC 2453; format: functional
[22] = system: Salmonella typhi; assay: Ratio of MBC for antibacterial activity against Salmonella typhi to MIC for bactericidal activity against Salmonella typhi; format: functional, Salmonella enterica subsp. enterica serovar Typhi
[23] = system: Enterococcus faecalis; assay: Antibacterial activity against Enterococcus faecalis MTCC 439 assessed as diameter of zone of inhibition at 0.5 times MIC incubated overnight by disk diffusion method; format: functional
[24] = system: Bacillus subtilis; assay: Antibacterial activity against Bacillus subtilis MTCC 736 assessed as diameter of zone of inhibition at 0.5 times MIC incubated overnight by disk diffusion method; format: functional
[25] = system: Salmonella typhi; assay: Antibacterial activity against Salmonella typhi assessed as diameter of zone of inhibition at 0.5 times MIC incubated overnight by disk diffusion method; format: functional, Salmonella enterica subsp. enterica serovar Typhi
[26] = system: Escherichia coli; assay: Antibacterial activity against Escherichia coli MTCC 443 assessed as diameter of zone of inhibition at MIC incubated overnight by disk diffusion method; format: functional
[27] = system: Enterococcus faecalis; assay: Antibacterial activity against Enterococcus faecalis MTCC 439 assessed as diameter of zone of inhibition at MIC incubated overnight by disk diffusion method; format: functional
[28] = system: Bacillus subtilis; assay: Antibacterial activity against Bacillus subtilis MTCC 736 assessed as diameter of zone of inhibition at MIC incubated overnight by disk diffusion method; format: functional
[29] = system: Staphylococcus aureus; assay: Antibacterial activity against Staphylococcus aureus MTCC 902 assessed as diameter of zone of inhibition at MIC incubated overnight by disk diffusion method; format: functional
[30] = system: Pseudomonas aeruginosa; assay: Antibacterial activity against Pseudomonas aeruginosa MTCC 2453 assessed as diameter of zone of inhibition at MIC incubated overnight by disk diffusion method; format: functional
[31] = system: Salmonella typhi; assay: Antibacterial activity against Salmonella typhi assessed as diameter of zone of inhibition at MIC incubated overnight by disk diffusion method; format: functional, Salmonella enterica subsp. enterica serovar Typhi
[32] = system: Escherichia coli; assay: Antibacterial activity against Escherichia coli MTCC 443 assessed as diameter of zone of inhibition at 2 times MIC incubated overnight by disk diffusion method; format: functional
[33] = system: Enterococcus faecalis; assay: Antibacterial activity against Enterococcus faecalis MTCC 439 assessed as diameter of zone of inhibition at 2 times MIC incubated overnight by disk diffusion method; format: functional
[34] = system: Bacillus subtilis; assay: Antibacterial activity against Bacillus subtilis MTCC 736 assessed as diameter of zone of inhibition at 2 times MIC incubated overnight by disk diffusion method; format: functional
[35] = system: Staphylococcus aureus; assay: Antibacterial activity against Staphylococcus aureus MTCC 902 assessed as diameter of zone of inhibition at 2 times MIC incubated overnight by disk diffusion method; format: functional
[36] = system: Pseudomonas aeruginosa; assay: Antibacterial activity against Pseudomonas aeruginosa MTCC 2453 assessed as diameter of zone of inhibition at 2 times MIC incubated overnight by disk diffusion method; format: functional
[37] = system: Salmonella typhi; assay: Antibacterial activity against Salmonella typhi assessed as diameter of zone of inhibition at 2 times MIC incubated overnight by disk diffusion method; format: functional, Salmonella enterica subsp. enterica serovar Typhi
[38] = system: Escherichia coli; assay: Synergistic antibacterial activity against Escherichia coli MTCC 443 assessed as inhibition of bacterial growth incubated overnight in presence of ciprofloxacin by serial dilution based spectrophotometer; format: functional
[39] = system: Enterococcus faecalis; assay: Synergistic antibacterial activity against Enterococcus faecalis MTCC 439 assessed as inhibition of bacterial growth incubated overnight in presence of ciprofloxacin by serial dilution based spectrophotometer; format: functional
[40] = system: Bacillus subtilis; assay: Synergistic antibacterial activity against Bacillus subtilis MTCC 736 assessed as inhibition of bacterial growth incubated overnight in presence of ciprofloxacin by serial dilution based spectrophotometer; format: functional
[41] = system: Staphylococcus aureus; assay: Synergistic antibacterial activity against Staphylococcus aureus MTCC 902 assessed as inhibition of bacterial growth incubated overnight in presence of ciprofloxacin by serial dilution based spectrophotometer; format: functional
[42] = system: Pseudomonas aeruginosa; assay: Synergistic antibacterial activity against Pseudomonas aeruginosa MTCC 2453 assessed as inhibition of bacterial growth incubated overnight in presence of ciprofloxacin by serial dilution based spectrophotometer; format: functional
[43] = system: Salmonella typhi; assay: Synergistic antibacterial activity against Salmonella typhi assessed as inhibition of bacterial growth incubated overnight in presence of ciprofloxacin by serial dilution based spectrophotometer; format: functional, Salmonella enterica subsp. enterica serovar Typhi; conditions: Salmonella enterica
[44] = system: Escherichia coli; assay: Synergistic antibacterial activity against Escherichia coli MTCC 443 assessed as fractional inhibitory concentration index incubated overnight in presence of ciprofloxacin by microdilution checkerboard assay; format: functional
[45] = system: Enterococcus faecalis; assay: Synergistic antibacterial activity against Enterococcus faecalis MTCC 439 assessed as fractional inhibitory concentration index incubated overnight in presence of ciprofloxacin by microdilution checkerboard assay; format: functional
[46] = system: Bacillus subtilis; assay: Synergistic antibacterial activity against Bacillus subtilis MTCC 736 assessed as fractional inhibitory concentration index incubated overnight in presence of ciprofloxacin by microdilution checkerboard assay; format: functional
[47] = system: Staphylococcus aureus; assay: Synergistic antibacterial activity against Staphylococcus aureus MTCC 902 assessed as fractional inhibitory concentration index incubated overnight in presence of ciprofloxacin by microdilution checkerboard assay; format: functional
[48] = system: Pseudomonas aeruginosa; assay: Synergistic antibacterial activity against Pseudomonas aeruginosa MTCC 2453 assessed as fractional inhibitory concentration index incubated overnight in presence of ciprofloxacin by microdilution checkerboard assay; format: functional
[49] = system: Salmonella typhi; assay: Synergistic antibacterial activity against Salmonella typhi assessed as fractional inhibitory concentration index incubated overnight in presence of ciprofloxacin by microdilution checkerboard assay; format: functional, Salmonella enterica subsp. enterica serovar Typhi
[50] = system: Escherichia coli; assay: Bacteriostatic activity against Escherichia coli MTCC 443 assessed as reduction in bacterial growth at 2 times MIC measured upto 24 hrs by absorbance based assay; format: functional, organism-based
[51] = system: Staphylococcus aureus; assay: Bacteriostatic activity against Staphylococcus aureus MTCC 902 assessed as reduction in bacterial growth at 2 times MIC measured upto 24 hrs by absorbance based assay; format: functional, organism-based
[52] = system: Enterococcus faecalis; assay: Antibacterial activity against Enterococcus faecalis MTCC 439 assessed as inhibition of bacterial growth at 200 ug/ml incubated overnight by spectrophotometry relative to control; format: functional
[53] = system: Bacillus subtilis; assay: Antibacterial activity against Bacillus subtilis MTCC 736 assessed as inhibition of bacterial growth at 200 ug/ml incubated overnight by spectrophotometry relative to control; format: functional
[54] = system: Pseudomonas aeruginosa; assay: Antibacterial activity against Pseudomonas aeruginosa MTCC 2453 assessed as inhibition of bacterial growth at 200 ug/ml incubated overnight by spectrophotometry relative to control; format: functional

## Fc1ccc(/C=N/CCNc2ccnc3cc(Cl)ccc23)cc1
[1]
  zone of inhibition at 500 µg/mL: 8 mm
[2]
  zone of inhibition at 500 µg/mL: 10 mm
[3]
  zone of inhibition at 500 µg/mL: 10 mm
[4]
  zone of inhibition at 500 µg/mL: 9 mm
[5]
  zone of inhibition at 500 µg/mL: 7 mm
[6]
  zone of inhibition at 500 µg/mL: 11 mm
[7]
  MIC: 512 µg/mL (≈ 1560 µM)
[8]
  MIC: 256 µg/mL (≈ 781 µM)
[9]
  MIC: 256 µg/mL (≈ 781 µM)
[10]
  MIC: 256 µg/mL (≈ 781 µM)
[11]
  MIC: 512 µg/mL (≈ 1560 µM)
[12]
  MIC: 128 µg/mL (≈ 390 µM)
[13]
  MBC: 512 µg/mL (≈ 1560 µM)
[14]
  MBC: > 512 µg/mL
[15]
  MBC: 256 µg/mL (≈ 781 µM)
[16]
  MBC: > 512 µg/mL
[17]
  MBC: 512 µg/mL (≈ 1560 µM)
[18]
  MBC: 128 µg/mL (≈ 390 µM)
[19]
  Ratio: 1
[20]
  Ratio: 1
[21]
  Ratio: 1
[22]
  Ratio: 1
[23]
  diameter of the inhibition zone (DIZ): 7 mm
[24]
  diameter of the inhibition zone (DIZ): 9 mm
[25]
  diameter of the inhibition zone (DIZ): 10 mm
[26]
  diameter of the inhibition zone (DIZ): 10 mm
[27]
  diameter of the inhibition zone (DIZ): 7 mm
[28]
  diameter of the inhibition zone (DIZ): 9 mm
[29]
  diameter of the inhibition zone (DIZ): 8 mm
[30]
  diameter of the inhibition zone (DIZ): 8 mm
[31]
  diameter of the inhibition zone (DIZ): 10 mm
[32]
  diameter of the inhibition zone (DIZ): 13 mm
[33]
  diameter of the inhibition zone (DIZ): 7 mm
[34]
  diameter of the inhibition zone (DIZ): 13 mm
[35]
  diameter of the inhibition zone (DIZ): 10 mm
[36]
  diameter of the inhibition zone (DIZ): 9 mm
[37]
  diameter of the inhibition zone (DIZ): 11 mm
[38]
  MIC: 64 µg/mL
[39]
  MIC: 128 µg/mL
[40]
  MIC: 256 µg/mL
[41]
  MIC: 32 µg/mL
[42]
  MIC: 256 µg/mL
[43]
  MIC: 16 µg/mL
[44]
  fractional inhibitory concentration index (FICI): 0.37
[45]
  fractional inhibitory concentration index (FICI): 1.5
[46]
  fractional inhibitory concentration index (FICI): 2
[47]
  fractional inhibitory concentration index (FICI): 1.12
[48]
  fractional inhibitory concentration index (FICI): 1.5
[49]
  fractional inhibitory concentration index (FICI): 0.187
[50]
  Activity: Active
[51]
  Activity: Active
[52]
  inhibition at 200 µg/mL: 100%
[53]
  inhibition at 200 µg/mL: 100%
[54]
  inhibition at 200 µg/mL: 100%
